Assay results as given in US20260356817A1, “AMINOPYRIMIDINE AND AMINOTRIAZINE DERIVATIVES AS MYC PROTEIN MODULATORS” (Sanford Burnham Prebys Medical Discovery Institute, priority 2022, published 2026).
pIC50: −log10 of the molar value. Where two headings read alike, the source gives them in different places.

Assays:
Myc = Myc inhibition assay: Myc expression per cell by anti-Myc immunofluorescence, high-content imaging; assay type: cell-based, human (patient-derived medulloblastoma xenograft cells)
In short: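 Cells from Myc-driven medulloblastoma patient-derived orthotopic xenografts, propagated only in NSG mouse cerebellum, were dissociated and plated in serum-free medium. After overnight recovery, compounds were applied for 4 hours; cells were then fixed, stained for Myc and DAPI, and per-cell Myc quantified by high-content imaging to derive IC50.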

[1] = test system: PDX511 medulloblastoma cells; test: Cell viability of PDX511 medulloblastoma cells at 4 hours; assay type: cell-based, human (patient-derived)
[2] = test system: retinoblastoma (Rb) protein; test: Rb protein expression in PDX511 medulloblastoma cells (immunofluorescence); assay type: cell-based, human (patient-derived)
[3] = Table 1, medulloblastoma PDX cells, 4 h, read-out: IC50 (Myc inhibition)
[4] = Table 2, medulloblastoma PDX cells, 4 h, read-out: MYC Inhibition IC50

Row | Structure (SMILES) | pIC50 (Myc; read-out: Myc expression inhibition IC50, PDX511 medulloblastoma cells, 4 h (FIG. 2A)) | pIC50 (Myc; [3]) | pIC50 (Myc; [4]) | effect on cell viability [1] | effect on expression of the retinoblastoma (Rb) protein [2]
1 | COc1ccc(Nc2nccc(-c3ccncc3)n2)cc1 [Compound A] | 4.93 | – | – | no effect | no effect
2 | c1cnc(-n2cc(Nc3nccc(-c4ccc5[nH]cnc5c4)n3)cn2)nc1 [Compound 20, 4-(1H-benzo[d]imidazol-5-yl)-N-(1-(pyrimidin-2-yl)-1H-pyrazol-4-yl)pyrimidin-2-amine] | – | 6.00 to 6.70 | 6.00 to 6.70 | – | –
3 | COc1cncc(-c2ccnc(N(C)c3ccccc3)n2)c1 [Compound 224, 4-(5-methoxypyridin-3-yl)-N-methyl-N-phenylpyrimidin-2-amine] | – | 4.00 to 5.00 | 4.00 to 5.00 | – | –
4 | COc1cncc(-c2ccnc(Nc3ccccc3)n2)c1 [Compound 228, 4-(5-methoxypyridin-3-yl)-N-phenylpyrimidin-2-amine] | – | 5.00 to 6.00 | 5.00 to 6.00 | – | –
5 | Oc1cc(Nc2ccnc(Nc3cccc(F)c3)n2)ccn1 [Compound 118, 4-((2-((3-fluorophenyl)amino)pyrimidin-4-yl)amino)pyridin-2-ol] | – | 4.00 to 5.00 | 4.00 to 5.00 | – | –
6 | Clc1cccc(Nc2nccc(-c3cnc4nc[nH]c4c3)n2)c1 [Compound 141, N-(3-chlorophenyl)-4-(1H-imidazo[4,5-b]pyridin-6-yl)pyrimidin-2-amine] | – | > 6.70 | > 6.70 | – | –
7 | O=C(NC1CC1)c1cccc(Nc2nccc(-c3ccc4[nH]cnc4c3)n2)c1 [Compound 9, 3-((4-(1H-benzo[d]imidazol-5-yl)pyrimidin-2-yl)amino)-N-cyclopropylbenzamide] | – | 6.00 to 6.70 | 6.00 to 6.70 | – | –
8 | c1ccc(-n2cc(Nc3nccc(-c4ccc5[nH]cnc5c4)n3)cn2)cc1 [Compound 39, 4-(1H-benzo[d]imidazol-5-yl)-N-(1-phenyl-1H-pyrazol-4-yl)pyrimidin-2-amine] | – | > 6.70 | > 6.70 | – | –
9 | CC(C)Nc1nccc(-c2ccc3[nH]cnc3c2)n1 [Compound 104, 4-(1H-benzo[d]imidazol-5-yl)-N-isopropylpyrimidin-2-amine] | – | 5.00 to 6.00 | 5.00 to 6.00 | – | –
10 | Oc1cc(-c2ccnc(Nc3cccnc3)n2)ccn1 [Compound 188, 4-(2-(pyridin-3-ylamino)pyrimidin-4-yl)pyridin-2-ol] | – | 5.00 to 6.00 | 5.00 to 6.00 | – | –
11 | COc1cc(-c2ccnc(Cc3ccccc3)n2)ccn1 [Compound 230, 2-Benzyl-4-(2-methoxypyridin-4-yl)pyrimidine] | – | 4.00 to 5.00 | 4.00 to 5.00 | – | –
12 | c1cc(-c2ccc3[nH]cnc3c2)nc(NC2CCOCC2)n1 [Compound 101, 4-(1H-benzo[d]imidazol-5-yl)-N-(tetrahydro-2H-pyran-4-yl)pyrimidin-2-amine] | – | 5.00 to 6.00 | 5.00 to 6.00 | – | –
13 | CN(c1ccccc1)c1nccc(-c2ccc(O)nc2)n1 [Compound 222, 5-(2-(methyl(phenyl)amino)pyrimidin-4-yl)pyridin-2-ol] | – | 4.00 to 5.00 | 4.00 to 5.00 | – | –
14 | Oc1ccc(-c2ccnc(Nc3cc(F)ccn3)n2)nc1 [Compound 170, 6-(2-((4-fluoropyridin-2-yl)amino)pyrimidin-4-yl)pyridin-3-ol] | – | 5.00 to 6.00 | 5.00 to 6.00 | – | –
15 | N#Cc1ccc(Nc2nccc(-c3ccc4[nH]cnc4c3)n2)cc1 [Compound 99, 4-((4-(1H-benzo[d]imidazol-5-yl)pyrimidin-2-yl)amino)benzonitrile] | – | 6.00 to 6.70 | 6.00 to 6.70 | – | –
16 | COc1cc(-c2ccnc(Sc3ccccc3)n2)ccn1 [Compound 234, 4-(2-methoxypyridin-4-yl)-2-(phenylthio)pyrimidine] | – | 6.00 to 6.70 | 6.00 to 6.70 | – | –
17 | CC(C)c1cccc(Nc2nccc(-c3cnc4nc[nH]c4c3)n2)c1 [Compound 134, 4-(1H-imidazo[4,5-b]pyridin-6-yl)-N-(3-isopropylphenyl)pyrimidin-2-amine] | – | > 6.70 | > 6.70 | – | –
18 | c1ccc(Cn2cc(Nc3nccc(-c4ccc5[nH]cnc5c4)n3)cn2)cc1 [Compound 37, 4-(1H-benzo[d]imidazol-5-yl)-N-(1-benzyl-1H-pyrazol-4-yl)pyrimidin-2-amine] | – | 6.00 to 6.70 | 6.00 to 6.70 | – | –
19 | Fc1cnc(Nc2cccc(C(F)(F)F)n2)cc1-c1ccc2nc[nH]c2c1 [Compound 279, 4-(1H-benzo[d]imidazol-6-yl)-5-fluoro-N-(6-(trifluoromethyl)pyridin-2-yl)pyridin-2-amine] | – | > 6.70 | > 6.70 | – | –
20 | COc1cc(-c2ccnc(Nc3cccnc3)n2)ccn1 [Compound 189, 4-(2-methoxypyridin-4-yl)-N-(pyridin-3-yl)pyrimidin-2-amine] | – | 5.00 to 6.00 | 5.00 to 6.00 | – | –

Further lines, with some results ahead:

Row | pIC50 (Myc; read-out: Myc expression inhibition IC50, PDX511 medulloblastoma cells, 4 h (FIG. 2A)) | pIC50 (Myc; [3]) | pIC50 (Myc; [4]) | Structure (SMILES) | effect on cell viability [1] | effect on expression of the retinoblastoma (Rb) protein [2]
21 | – | 5.00 to 6.00 | 5.00 to 6.00 | FC(F)(F)c1cccc(Nc2nccc(-c3c[nH]c4cnccc34)n2)c1 [Compound 30, 4-(1H-pyrrolo[2,3-c]pyridin-3-yl)-N-(3-(trifluoromethyl)phenyl)pyrimidin-2-amine] | – | –
22 | – | > 6.70 | > 6.70 | FC(F)(F)c1cccc(Nc2cc(-c3ccc4nc[nH]c4c3)ccn2)n1 [Compound 281, N-(4-(1H-benzo[d]imidazol-6-yl)pyridin-2-yl)-6-(trifluoromethyl)pyridin-2-amine] | – | –
23 | – | > 6.70 | > 6.70 | c1cc(Nc2nccc(-c3ccc4[nH]cnc4c3)n2)cc(-n2ccnn2)c1 [Compound 259, N-(3-(1H-1,2,3-triazol-1-yl)phenyl)-4-(1H-benzo[d]imidazol-5-yl)pyrimidin-2-amine] | – | –
24 | – | > 6.70 | > 6.70 | NS(=O)(=O)c1cccc(Nc2nccc(-c3ccc4[nH]cnc4c3)n2)c1 [Compound 46, 3-((4-(1H-benzo[d]imidazol-5-yl)pyrimidin-2-yl)amino)benzenesulfonamide] | – | –
25 | – | 5.00 to 6.00 | 5.00 to 6.00 | Cn1cnc2cc(-c3ccnc(Nc4cccc(C(F)(F)F)c4)n3)ccc21 [Compound 34, 4-(1-methyl-1H-benzo[d]imidazol-5-yl)-N-(3-(trifluoromethyl)phenyl)pyrimidin-2-amine] | – | –
26 | – | > 6.70 | > 6.70 | CS(=O)(=O)c1cccc(Nc2nccc(-c3ccc4[nH]cnc4c3)n2)c1 [Compound 27, 4-(1H-benzo[d]imidazol-5-yl)-N-(3-(methylsulfonyl)phenyl)pyrimidin-2-amine] | – | –
27 | – | 5.00 to 6.00 | 5.00 to 6.00 | FC(F)(F)c1cccc(Nc2nccc(-c3ccc4scnc4c3)n2)c1 [Compound 76, 4-(benzo[d]thiazol-5-yl)-N-(3-(trifluoromethyl)phenyl)pyrimidin-2-amine] | – | –
28 | – | > 6.70 | > 6.70 | Fc1cc(-c2ccnc(Nc3cccc(C(F)(F)F)c3)n2)cc2nc[nH]c12 [Compound 115, 4-(7-fluoro-1H-benzo[d]imidazol-5-yl)-N-(3-(trifluoromethyl)phenyl)pyrimidin-2-amine] | – | –
29 | – | 5.00 to 6.00 | 5.00 to 6.00 | c1ccc(Nc2nccc(-c3ccc4[nH]cnc4c3)n2)cc1 [Compound 78, 4-(1H-benzo[d]imidazol-5-yl)-N-phenylpyrimidin-2-amine] | – | –
30 | – | 5.00 to 6.00 | 5.00 to 6.00 | Oc1cncc(-c2ccnc(Nc3cccc(C(F)(F)F)c3)n2)c1 [Compound 201, 5-(2-((3-(trifluoromethyl)phenyl)amino)pyrimidin-4-yl)pyridin-3-ol] | – | –
